From patent publication US20140328933A1, “NOVEL FORMULATIONS AND METHODS” (priority 2010, published 2014)
Where no end group is shown, it is not given here.

Test system: Angiogenesis in the CAM Model
Experiment: Chorioallantoic Membrane Angiogenesis (CAM) Model, branch points formation
Type: in vivo
Excerpt: VIP in Chorioallantoic Membrane Angiogenesis (CAM) Model
FIG. 15 depicts the results of testing regarding Nanoparticle encapsulates.

Vasoactive intestinal peptide (HSDAVFTDNYTRLRKQMAVKKYLNSILN-NH2) [VIP, peptide hormone containing 28 amino acid residues]
Total # of branches [VIP (1 ng/CAM) - PBS(average)], Mean (VIP 1 ng/CAM, PBS average subtracted): 34.8
Total # of branches [VIP (10 ng/CAM) - PBS(average)], Mean (VIP 10 ng/CAM, PBS average subtracted): 53.6
number of branches, Mean (VIP 0.1 ug/ml, 1 ng/CAM): 84.8
Total # of branches [VIP (100 ng/CAM) - PBS(average)], Mean (VIP 100 ng/CAM, PBS average subtracted): 71.7
number of branches, Mean (VIP 1 ug/ml, 10 ng/CAM): 103.6
number of branches, Mean (VIP 10 ug/ml, 100 ng/CAM): 121.7
